From PubChem BioAssay AID381 (SGCOxCompounds, 2006)

The molecules below were run against Aldo-keto reductase family 1 member C4 (Homo sapiens) (UniProt P17516) (assay: ligand-induced stabilization of human AKR1C4 – biophysical, DSF, SYPRO orange, with or without NADPH (AID 381)). Conditions: recombinant AKR1C4, DSF thermal shift, at 10 µM, buffer 10 mM HEPES, NaCl 150 mM, pH 7.5, protein 2 µM, hits give high values.
Chain of Aldo-keto reductase family 1 member C4 (Homo sapiens) (P17516 whole entry, looked up): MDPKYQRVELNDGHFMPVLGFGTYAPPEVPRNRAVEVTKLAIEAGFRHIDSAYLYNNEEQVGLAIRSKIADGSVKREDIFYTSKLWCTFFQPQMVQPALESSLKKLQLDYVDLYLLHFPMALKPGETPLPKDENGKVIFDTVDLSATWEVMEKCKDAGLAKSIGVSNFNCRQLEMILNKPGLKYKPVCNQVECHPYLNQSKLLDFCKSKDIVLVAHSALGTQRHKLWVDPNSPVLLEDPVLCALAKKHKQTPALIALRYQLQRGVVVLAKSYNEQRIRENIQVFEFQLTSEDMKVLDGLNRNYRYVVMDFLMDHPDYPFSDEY

Work on `O=c1cc(-c2ccccc2)oc2cc(O)c(O)c(O)c12` yielded a Tm shift of 3.5 Celsius.

Same assay, conditions: recombinant AKR1C4, DSF thermal shift, at 10 µM, buffer 10 mM HEPES, pH 7.5, NaCl 150 mM, NADPH 20 µM, protein 2 µM, hits give high values

Compared with `C[C@]12CC[C@H]3C(=CCc4cc(O)ccc43)[C@@H]1CCC2=O`, `C[C@]12CC[C@H]3[C@@H](CCC4=CC(=O)CC[C@@]43C)[C@@H]1CC[C@@H]2O` is higher in Tm shift: 4.5 Celsius for the first, 5.3 Celsius for the second.

Compared with `CC(=O)[C@H]1CC[C@H]2[C@@H]3CCC4=CC(=O)CC[C@]4(C)[C@H]3CC[C@]12C`, `Oc1cc(Cl)ccc1Oc1ccc(Cl)cc1Cl` is lower in Tm shift: 4.5 Celsius for the first, 2.3 Celsius for the second.

Same assay, conditions: recombinant AKR1C4, DSF thermal shift, at 10 µM, buffer 10 mM HEPES, pH 7.5, NaCl 150 mM, protein 2 µM, hits give high values

First: O=c1cc(-c2ccc(O)cc2)oc2cc(O)cc(O)c12
Second: O=c1cc(-c2ccccc2)oc2cc(O)cc(O)c12
The Tm shift of the first is lower: 2.2 Celsius for the first, 2.3 Celsius for the second.

Going from `CC1(C)[C@@H](O)CC[C@]2(C)[C@H]3C(=O)C=C4[C@H]5C[C@@](C)(C(=O)O)CC[C@]5(C)CC[C@@]4(C)[C@]3(C)CC[C@@H]12` to `CC1(C)[C@@H](O)CC[C@]2(C)[C@H]3C(=O)C=C4[C@@H]5C[C@@](C)(C(=O)O)CC[C@]5(C)CC[C@@]4(C)[C@]3(C)CC[C@@H]12`, the Tm shift falls from 5.2 Celsius to 5 Celsius.

First: O=C1C(=O)C(c2ccc(O)cc2O)Oc2cc(O)cc(O)c21 (configuration not stated)
Second: CC1CC(C)(C)NC(=S)N1CCCC(=O)N1CCN(C(c2ccccc2)c2ccc(Cl)cc2)CC1 (configuration not stated)
The Tm shift of the first is lower: 2.1 Celsius for the first, 2.4 Celsius for the second.

With `CC1(C)[C@@H](OC(=O)CCC(=O)O)CC[C@]2(C)[C@H]3C(=O)C=C4[C@@H]5C[C@@](C)(C(=O)O)CC[C@]5(C)CC[C@@]4(C)[C@]3(C)CC[C@@H]12` the Tm shift was 7.3 Celsius.
